These molecules were tested against T1, USP7 (Homo sapiens, UniProt Q93009) (assay: USP7 biochemical IC50 assay (fluorescence polarisation, TAMRA labelled peptide linked to ubiquitin via an iso-peptide bond)). Conditions: 30 min pre-incubation of enzyme and compound, read after 2 hr incubation at room temperature, read-out: IC50 range.
T1 construct: The USP7 construct was PCR amplified and cloned into a pFLAG-CMV-6a vector (Sigma-Aldrich) with an N-terminal FLAG tag; made in house; host or cells: HEK293T
T1 sequence (Q93009 whole entry): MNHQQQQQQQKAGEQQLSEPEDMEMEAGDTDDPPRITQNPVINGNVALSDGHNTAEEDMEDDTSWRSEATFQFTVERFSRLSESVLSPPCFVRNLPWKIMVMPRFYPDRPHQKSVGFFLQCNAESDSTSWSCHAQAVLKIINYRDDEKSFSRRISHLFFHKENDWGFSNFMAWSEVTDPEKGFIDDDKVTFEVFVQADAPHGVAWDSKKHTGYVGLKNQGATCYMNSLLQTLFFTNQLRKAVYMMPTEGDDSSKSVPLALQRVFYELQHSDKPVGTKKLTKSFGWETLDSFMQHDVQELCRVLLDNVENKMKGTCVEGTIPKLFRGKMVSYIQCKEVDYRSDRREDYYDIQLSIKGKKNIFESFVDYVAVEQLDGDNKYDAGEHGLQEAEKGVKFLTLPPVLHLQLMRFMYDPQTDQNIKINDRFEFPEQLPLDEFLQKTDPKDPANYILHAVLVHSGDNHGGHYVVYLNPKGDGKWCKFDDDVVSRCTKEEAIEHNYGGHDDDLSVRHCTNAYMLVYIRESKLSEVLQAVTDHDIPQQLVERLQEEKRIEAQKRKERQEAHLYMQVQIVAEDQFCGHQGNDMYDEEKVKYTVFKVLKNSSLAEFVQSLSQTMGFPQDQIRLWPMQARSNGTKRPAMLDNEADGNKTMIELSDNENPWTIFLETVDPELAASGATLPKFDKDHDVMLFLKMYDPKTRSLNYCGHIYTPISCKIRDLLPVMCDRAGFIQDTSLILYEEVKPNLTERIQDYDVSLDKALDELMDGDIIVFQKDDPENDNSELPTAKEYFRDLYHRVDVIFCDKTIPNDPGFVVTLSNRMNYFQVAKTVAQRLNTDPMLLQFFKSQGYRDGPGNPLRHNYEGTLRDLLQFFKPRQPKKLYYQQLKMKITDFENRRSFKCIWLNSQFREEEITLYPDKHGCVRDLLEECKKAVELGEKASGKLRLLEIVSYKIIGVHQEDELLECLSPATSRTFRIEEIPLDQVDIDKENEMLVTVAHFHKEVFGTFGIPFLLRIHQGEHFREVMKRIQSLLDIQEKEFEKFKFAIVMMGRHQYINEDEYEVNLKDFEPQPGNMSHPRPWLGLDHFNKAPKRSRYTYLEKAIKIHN
Protocol: In Vitro USP7 Inhibition Assay
Expression and Purification of USP7
The USP7 construct was PCR amplified and cloned into a pFLAG-CMV-6a vector (Sigma-Aldrich) with an N-terminal FLAG tag. HEK293T cells were transfected with FLAG-USP7 using TransIT-LT1 transfection reagent (Mirus) according to the manufacturer's instructions. Cells were harvested 40 hours after transfection. […] The resin was washed two times with low salt buffer plus protease inhibitors (complete mini, Roche) and phosphatase inhibitors (PhosSTOP mini, Roche) and one time with high salt buffer (20 mM Tris, pH 7.5, 500 mM NaCl, 0.5 mM EDTA, 5 mM beta-mercaptoethanol, protease inhibitors (complete mini, Roche) and phosphatase inhibitors (PhosSTOP mini, Roche). To elute the bound USP7, elution buffer (10 mM Tris, pH 7.5, 150 mM NaCl, 0.5 mM EDTA, 10% glycerol, 0.5% NP40, 5 mM beta-mercaptoethanol, 0.15 mg/ml 3×FLAG peptide (Sigma-Aldrich)) was added to the resin and incubated at 4° C. for 2.5 hours rotating. The resin was centrifuged at 4000 rpm for 30 seconds, and the supernatant containing purified FLAG-USP7 was removed and stored at −80° C.
USP7 Biochemical IC50 Assay
A typical 8-point dilution series would be 100, 30, 10, 3, 1, 0.3, 0.1, 0.03 μM final. […] Either 1 μl of 50% DMSO or diluted compound was added to the plate. USP7 was diluted in reaction buffer (20 mM Tris, pH 7.5, 100 mM NaCl, 0.05% Tween 20, 0.5 mg/ml BSA, 5 mM—beta mercaptoethanol) to the equivalent of 0.0025 μl/well and 10 μl of diluted USP7 was added to the compound. Enzyme and compound were incubated for 30 min at room temp. Reactions were initiated by the addition of 50 nM of TAMRA labelled peptide linked to ubiquitin via an iso-peptide bond as fluorescence polarisation substrate. Reactions were read immediately after addition of substrate and following a 2 hr incubation at room temperature. Readings were performed on a Pherastar Plus (BMG Labtech). λ Excitation 540 nm; λ Emission 590 nm.

SMILES	IC50
Cc1ccccc1-c1cc(C(=O)Nc2cccc3c2CN(C#N)C3)[nH]n1 [Example 83, N-(2-cyanoisoindolin-4-yl)-3-(o-tolyl)-1H-pyrazole-5-carboxamide]	10 to 30 µM
N#CN1Cc2cccc(NC(=O)c3csc(-c4ccccc4)n3)c2C1 [Example 84, N-(2-cyanoisoindolin-4-yl)-2-phenylthiazole-4-carboxamide]	10 to 30 µM
COCc1ccc(C(=O)Nc2cccc3c2CN(C#N)C3)cc1 [Example 88, N-(2-cyanoisoindolin-4-yl)-4-(methoxymethyl)benzamide]	10 to 30 µM
N#CN1Cc2cccc(NC(=O)c3ccc(CNC(=O)OCc4ccccc4)cc3)c2C1 [Example 91, benzyl (4-((2-cyanoisoindolin-4-yl)carbamoyl)benzyl carbamate]	1 to 10 µM
N#CN1Cc2cccc(NC(=O)c3ccc(S(=O)(=O)Nc4ccccc4)cc3)c2C1 [Example 92, N-(2-cyanoisoindolin-4-yl)-4-(N-phenylsulfamoyl)benzamide]	1 to 10 µM
N#CN1Cc2cccc(NC(=O)c3ccc(N4CCOCC4)s3)c2C1 [Example 93, N-(2-cyanoisoindolin-4-yl)-5-morpholinothiophene-2-carboxamide]	1 to 10 µM
CN1CCC(C(=O)Nc2ccc3c(c2)CN(C#N)C3)C1 (stereo not shown) [Example 94, N-(2-cyanoisoindolin-5-yl)-1-methylpyrrolidine-3-carboxamide]	1 to 10 µM
N#CN1Cc2cccc(C(=O)NCc3ccccc3)c2C1 [Example 95, N-benzyl-2-cyanoisoindoline-4-carboxamide]	10 to 30 µM
CC(=O)Nc1ccc2c(c1-c1ccccc1)CN(C#N)C2 [Example 96, N-(2-cyano-4-phenylisoindolin-5-yl)acetamide]	1 to 10 µM
Cn1cc(-c2nnc(-c3ccccc3)c3c2CN(C#N)C3)cn1 [Example 97, 1-(1-methyl-1H-pyrazol-4-yl)-4-phenyl-5,7-dihydro-6H-pyrrolo[3,4-c]pyridazine-6-carbonitrile]	10 to 30 µM
COC(=O)c1cc2c(c(-c3ccccc3)c1)CN(C#N)C2 [Example 98, methyl 2-cyano-7-phenylisoindoline-5-carboxylate]	1 to 10 µM
N#CN1Cc2ncnc(N3CCN(c4ccc(F)cc4F)CC3)c2C1 [Example 99, 4-(4-(2,4-difluorophenyl)piperazin-1-yl)-5H-pyrrolo[3,4-d]pyrimidine-6(7H)-carbonitrile]	10 to 30 µM
N#CN1Cc2ncnc(N3Cc4ccccc4C3)c2C1 [Example 100, 4-(isoindolin-2-yl)-5,7-dihydro-6H-pyrrolo[3,4-c]pyrimidine-6-carbonitrile]	1 to 10 µM
N#CN1Cc2ncnc(N3CCC(Oc4cccnc4)CC3)c2C1 [Example 101, 4-(4-(pyridin-3-yloxy)piperidin-1-yl)-5,7-dihydro-6H-pyrrolo[3,4-c]pyrimidine-6-carbonitrile]	10 to 30 µM
COc1cccc(OC2CCN(c3ncnc4c3CN(C#N)C4)CC2)c1 [Example 102, 4-(4-(3-methoxyphenoxy)piperidin-1-yl)-5,7-dihydro-6H-pyrrolo[3,4-d]pyrimidine-6-carbonitrile]	1 to 10 µM
N#CN1Cc2ncnc(N3CCC(Oc4ccccc4C(N)=O)CC3)c2C1 [Example 103, 2-((1-(6-cyano-6,7-dihydro-5H-pyrrolo[3,4-d]pyrimidin-4-yl)piperidin-4-yl)oxy)benzamide]	10 to 30 µM
CC(=O)Nc1nc2c(c(-c3ccccc3)n1)CN(C#N)C2 [Example 104, N-(6-cyano-4-phenyl-6,7-dihydro-5H-pyrrolo[3,4-c]pyrimidin-2-yl)acetamide]	1 to 10 µM
CC(=O)Nc1nc2c(c(-c3cccc(C#N)c3)n1)CN(C#N)C2 [Example 105, N-(6-cyano-4-(3-cyanophenyl)-6,7-dihydro-5H-pyrrolo[3,4-c]pyrimidin-2-yl)acetamide]	1 to 10 µM
CC(=O)Nc1nc2c(c(-c3cccc(OC(F)(F)F)c3)n1)CN(C#N)C2 [Example 106, N-(6-cyano-4-(3-(trifluoromethoxy)phenyl)-6,7-dihydro-5H-pyrrolo[3,4-d]pyrimidin-2-yl)acetamide]	1 to 10 µM
CC(=O)Nc1nc2c(c(-c3cnn(C)c3)n1)CN(C#N)C2 [Example 107, N-(6-cyano-4-(1-methyl-1H-pyrazol-4-yl)-6,7-dihydro-5H-pyrrolo[3,4-d]pyrimidin-2-yl)acetamide]	10 to 30 µM
CC(=O)Nc1cccc(-c2nc(NC(C)=O)nc3c2CN(C#N)C3)c1 [Example 108, N-(3-(2-acetamido-6-cyano-6,7-dihydro-5H-pyrrolo[3,4-d]pyrimidin-4-yl)phenyl)acetamide]	1 to 10 µM
CC(=O)Nc1nc2c(c(-c3cccc(NS(C)(=O)=O)c3)n1)CN(C#N)C2 [Example 109, N-(6-cyano-4-(3-(methylsulfonamido)phenyl)-6,7-dihydro-5H-pyrrolo[3,4-d]pyrimidin-2-yl)acetamide]	1 to 10 µM
N#CN1Cc2nc(N[C@H]3CC[C@H](O)CC3)nc(-c3ccccc3)c2C1 [Example 110, 2-(((1R,4R)-4-hydroxycyclohexyl)amino)-4-phenyl-5H-pyrrolo[3,4-d]pyrimidine-6(7H)-carbonitrile]	1 to 10 µM
N#CN1Cc2nc(NCC3CCOCC3)nc(-c3ccccc3)c2C1 [Example 111, 4-phenyl-2-(((tetrahydro-2H-pyran-4-yl)methyl)amino)-5,7-dihydro-6H-pyrrolo[3,4-d]pyrimidine-6-carbonitrile]	1 to 10 µM
Cn1cc(Nc2nc3c(c(-c4ccccc4)n2)CN(C#N)C3)cn1 [Example 112, 2-((1-methyl-1H-pyrazol-4-yl)amino)-4-phenyl-5,7-dihydro-6H-pyrrolo[3,4-d]pyrimidine-6-carbonitrile]	1 to 10 µM
N#CN1Cc2nc(NCc3ncccn3)nc(-c3ccccc3)c2C1 [Example 113, 4-phenyl-2-((pyrimidin-2-ylmethyl)amino)-5,7-dihydro-6H-pyrrolo[3,4-d]pyrimidine-6-carbonitrile]	1 to 10 µM

Next, values leading:

IC50	SMILES
1 to 10 µM	CC(NC(=O)c1cccc(-c2cccc3c2CN(C#N)C3)c1)c1ccccc1 (stereo not shown) [Example 74, 3-(2-cyanoisoindolin-4-yl)-N-(1-phenylethyl)benzamide]
1 to 10 µM	N#CN1Cc2cccc(-c3cccc(C(=O)Nc4ccccc4)c3)c2C1 [Example 75, 3-(2-cyanoisoindolin-4-yl)-N-phenylbenzamide]
1 to 10 µM	C[C@@H](NC(=O)c1cccc(-c2cccc3c2CN(C#N)C3)c1)c1ccccc1 [Example 76, (R)-3-(2-cyanoisoindolin-4-yl)-N-(1-phenylethyl)benzamide]
1 to 10 µM	N#CN1Cc2cccc(-c3ccccc3C(=O)NCCN)c2C1 [Example 77, N-(2-aminoethyl)-2-(2-cyanoisoindolin-4-yl)benzamide]
1 to 10 µM	N#CN1Cc2cccc(-c3ccccc3C(=O)N3CCNCC3)c2C1 [Example 78, 4-(2-(piperazine-1-carbonyl)phenyl)isoindoline-2-carbonitrile]
1 to 10 µM	N#CN1Cc2cccc(-c3ccnc(C(=O)NCc4ccccc4)c3)c2C1 [Example 79, N-benzyl-4-(2-cyanoisoindolin-4-yl)picolinamide]
1 to 10 µM	N#CN1Cc2cccc(NC(=O)c3cccc(NC(=O)C4CC4)c3)c2C1 [Example 80, N-(2-cyanoisoindolin-4-yl)-3-(cyclopropanecarboxamido)benzamide]
1 to 10 µM	N#CN1Cc2cccc(NC(=O)c3ccc(-c4cccnc4)cc3)c2C1 [Example 81, N-(2-cyanoisoindolin-4-yl)-4-(pyridin-3-yl)benzamide]
1 to 10 µM	N#CN1Cc2cccc(NC(=O)c3ccc(-c4ccncc4)cc3)c2C1 [Example 82, N-(2-cyanoisoindolin-4-yl)-4-(pyridin-4-yl)benzamide]
1 to 10 µM	COc1cc2cc(C(=O)Nc3cccc4c3CN(C#N)C4)[nH]c2cn1 [Example 85, N-(2-cyanoisoindolin-4-yl)-5-methoxy-1H-pyrrolo[2,3-c]pyridine-2-carboxamide]
1 to 10 µM	N#CN1Cc2cccc(NC(=O)c3cc(-c4cnccn4)[nH]n3)c2C1 [Example 86, N-(2-cyanoisoindolin-4-yl)-5-(pyrazin-2-yl)-1H-pyrazole-3-carboxamide]
1 to 10 µM	N#CN1Cc2cccc(NC(=O)c3ccc(=O)n(Cc4ccccc4)c3)c2C1 [Example 87, 1-benzyl-N-(2-cyanoisoindolin-4-yl)-6-oxo-1,6-dihydropyridine-3-carboxamide]
1 to 10 µM	COC(=O)Nc1cccc(C(=O)Nc2cccc3c2CN(C#N)C3)c1 [Example 89, methyl (3-((2-cyanoisoindolin-4-yl)carbamoyl)phenyl)carbamate]
1 to 10 µM	N#CN1Cc2cccc(NC(=O)c3cccc(NC(=O)c4ccccc4)c3)c2C1 [Example 90, 3-benzamido-N-(2-cyanoisoindolin-4-yl)benzamide]

Source: patent US10683269B2 (MISSION THERAPEUTICS LIMITED, priority 2016, dated 2020)
